According to patent publication US8835440B2, “Cyclic pyrimidin-4-carboxamides as CCR2 receptor antagonists for treatment of inflammation, asthma and COPD” (Boehringer Ingelheim International GmbH, priority 2008, dated 2014):

Biological target: T1, CCR2 (Homo sapiens, UniProt P41597)
T1 construct: Membranes were prepared from THP-1 cells; endogenous in cells; host or cells: THP-1 cells (membrane preparation)
T1 sequence (P41597 1-360 isoform P41597-2): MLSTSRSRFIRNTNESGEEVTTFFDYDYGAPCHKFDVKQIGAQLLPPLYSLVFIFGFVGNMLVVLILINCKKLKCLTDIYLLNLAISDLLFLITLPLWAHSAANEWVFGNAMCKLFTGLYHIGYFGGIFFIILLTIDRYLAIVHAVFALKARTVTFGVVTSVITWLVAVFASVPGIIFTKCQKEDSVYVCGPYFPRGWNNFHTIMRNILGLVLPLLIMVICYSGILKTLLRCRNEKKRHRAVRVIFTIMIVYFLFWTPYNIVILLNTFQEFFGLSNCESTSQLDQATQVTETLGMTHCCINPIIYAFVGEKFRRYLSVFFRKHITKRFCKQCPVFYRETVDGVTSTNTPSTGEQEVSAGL
Experiment: CCR2 receptor membrane binding assay ([125I]MCP-1, THP-1 cell membranes, SPA beads)
Details: for remaining activity at 10 µM: @ 10 μM test compound, THP-1 membranes, read-out: CCR2 % ctrl @ 10 μM; for Ki: dissociation constant hKi, [125I]MCP-1 binding to THP-1 membranes
Experimental: The above exemplary substances have been tested for binding to CCR2 using a binding assay as outlined herein below:
THP-1 cells (human acute monocytic leukaemia cells) were cultured under standardized conditions at 37° C. and 5% CO2 in a humidified incubator. THP-1 cells were cultivated in RPMI 1640 medium (Gibco 21875) containing 1% MEM-NEAA (Gibso 11140) 2 mM L-glutamine, 1.5 g/L sodium bicarbonate, 4.5 g/L glucose, 10 mM HEPES and 1.0 mM sodium pyruvate, 90%; 10% fetal calf serum (FCS Gibco 10500-064).
Membranes were prepared from THP-1 cells. THP-1 cells were centrifuged at 300×g at 4° C. for 10 min. The cell pellet was resuspendet in Phosphate Buffer Saline (PBS, including 10 μM Pefabloc and a protease inhibitor mix ‘complete’, Boehringer Mannheim (1 tablet/50 ml)), to a concentration of […]. The membrane preparation was performed by disrupting the cells by nitrogen […] (at 50 bar, for 1 h) in a “Nitrogen Bombe” (Parr Instrument). Cell debris was removed by centrifugation (800×g at 4° C., 1 min). The supernatant was centrifuged at 80000×g, 4° C. for 30 min to sediment the cell membranes. Usually 50 mg of protein (Bradford assay) were yielded from 1×10E9 cells. The membranes were resuspendet in 25 mM HEPES, 25 mM MgCl2, 1 mM CaCl2, 10% Glycerine for storage in aliquots at −80° C. in 25 mM HEPES, 25 mM MgCl2, 1 mM CaCl2, 10% Glycerine and stored at −80° C.
Receptor Membrane Binding Assay:
Perkin Elmer NEX 332 Jod 125 MCP-1, Stock: 2200 Ci/mmol solved in 2000 μl assay buffer, stored at −20° C. THP-1 membrane were adjusted with 25 mM HEPES, pH 7.2; 5 mM MgCl2; 0.5 mM CaCl2; 0.2% BSA assay buffer to a concentration of […]. Amersham Biosciences PVT-WGA Beads (RPNQ0001) were adjusted with assay buffer to a concentration of 0.24 mg/30 μl. For preparation of the membrane-bead-suspension membranes and beads were incubated for 30 min at RT under rotation (60 rpm) with a ratio of 1:2. Test compounds dissolved in 100% DMSO to a concentration of 10 mM and are further diluted with 100% DMSO to 1 mM. All additional compound dilutions were obtained with assay buffer, final 1% DMSO. Compounds, membrane-bead-suspension and [125I]MCP-1 (ca. 25000 cpm/10 μl) were incubated. Bound radioactivity was determined by scintillation counter after 8 h. Determination of affinity of test compounds (dissociation constant hKi) is calculated by iterative fitting of experimental data using the “easy sys” program, which is based on law of mass action (Schittkowski K. (1994), Numerische Mathematik, Vol. 68, 129-142).

Row | remaining activity at 10 µM | Ki | Compound
1 | 1% | 0.032 µM | Cc1c(NCc2ccc(C(C)(C)C)cc2)ncnc1C(=O)N1CCC(N2CCC(N(C)S(C)(=O)=O)CC2)CC1 [Example 1]
2 | 13% | 0.222 µM | Cc1c(NCCc2ccc(Cl)c(Cl)c2)ncnc1C(=O)N1CCC(N2CCCCC2)CC1 [Example 2]
3 | 14% | 0.204 µM | Cc1c(NCCc2ccc(Cl)c(Cl)c2)ncnc1C(=O)N1CCC(N2CCC(O)CC2)CC1 [Example 3]
4 | 43% | 1.59 µM | Cc1c(NCc2cccc(C(F)(F)F)c2)ncnc1C(=O)N1CCC(N2CCC(O)CC2)CC1 [Example 4]
5 | 26% | 0.616 µM | Cc1c(NCc2ccc(OC(F)(F)F)cc2)ncnc1C(=O)N1CCC(N2CCC(O)CC2)CC1 [Example 5]
6 | 41% | 1.93 µM | Cc1c(NCc2cc(F)cc(C(F)(F)F)c2)ncnc1C(=O)N1CCC(N2CCC(O)CC2)CC1 [Example 6]
7 | 16% | 0.306 µM | Cc1c(NCc2ccc(C(C)(C)C)cc2)ncnc1C(=O)N1CCC(N2CCC(O)CC2)CC1 [Example 7]
8 | 36% | 1.02 µM | Cc1c(NCc2cccc(OC(F)(F)F)c2)ncnc1C(=O)N1CCC(N2CCC(O)CC2)CC1 [Example 8]
9 | 32% | 0.974 µM | Cc1c(NCc2ccc(C(F)(F)F)cc2)ncnc1C(=O)N1CCC(N2CCC(O)CC2)CC1 [Example 9]
10 | 27% | 0.65 µM | Cc1c(NCc2ccc(C(F)(F)F)c(F)c2)ncnc1C(=O)N1CCC(N2CCC(O)CC2)CC1 [Example 10]
11 | 38% | 1.71 µM | Cc1c(NCCc2cccc(C(F)(F)F)c2)ncnc1C(=O)N1CCC(N2CCC(O)CC2)CC1 [Example 11]
12 | 29% | 0.664 µM | Cc1c(NCCc2ccc(C(F)(F)F)cc2)ncnc1C(=O)N1CCC(N2CCC(O)CC2)CC1 [Example 12]
13 | 42% | 1.33 µM | Cc1c(NCC2CCC(C(F)(F)F)CC2)ncnc1C(=O)N1CCC(N2CCC(O)CC2)CC1 (centres unmarked) [Example 13]
14 | 22% | 0.387 µM | Cc1c(NCCc2ccc(OC(F)(F)F)cc2)ncnc1C(=O)N1CCC(N2CCC(O)CC2)CC1 [Example 14]
15 | 14% | 0.2 µM | Cc1c(NCCCCc2ccccc2)ncnc1C(=O)N1CCC(N2CCC(O)CC2)CC1 [Example 15]
16 | 40% | 1.9 µM | Cc1c(NCCOc2ccccc2)ncnc1C(=O)N1CCC(N2CCC(O)CC2)CC1 [Example 16]
17 | 18% | 0.302 µM | Cc1c(NCCCc2ccccc2)ncnc1C(=O)N1CCC(N2CCC(O)CC2)CC1 [Example 17]
18 | 52% | 3.5 µM | Cc1c(NCCOCc2ccccc2)ncnc1C(=O)N1CCC(N2CCC(O)CC2)CC1 [Example 18]
19 | 40% | 0.269 µM | Cc1c(NCC2COc3ccccc3C2)ncnc1C(=O)N1CCC(N2CCC(O)CC2)CC1 (centres unmarked) [Example 19]
20 | 24% | 0.303 µM | Cc1c(NCC2CCN(c3ccccc3)C2)ncnc1C(=O)N1CCC(N2CCC(O)CC2)CC1 (centres unmarked) [Example 20]
21 | 51% | 2.66 µM | Cc1c(NCc2ccc(C(F)(F)F)cc2F)ncnc1C(=O)N1CCC(N2CCC(O)CC2)CC1 [Example 21]
22 | 24% | 0.466 µM | Cc1c(NC2CCC(c3ccccc3)CC2)ncnc1C(=O)N1CCC(N2CCC(O)CC2)CC1 (centres unmarked) [Example 22]
23 | 7% | 0.169 µM | Cc1c(NCC2Cc3ccccc3C2)ncnc1C(=O)N1CCC(N2CCC(O)CC2)CC1 [Example 23]

Row | remaining activity at 10 µM | Ki | Compound
24 | 58% | 4.03 µM | Cc1c(NC2COc3ccccc3C2)ncnc1C(=O)N1CCC(N2CCC(O)CC2)CC1 (centres unmarked) [Example 24]
25 | 47% | 2.41 µM | Cc1c(N[C@@H]2CCc3ccccc3C2)ncnc1C(=O)N1CCC(N2CCC(O)CC2)CC1 [Example 25]
26 | 30% | 0.914 µM | Cc1c(NCC2Cc3ccccc32)ncnc1C(=O)N1CCC(N2CCC(O)CC2)CC1 (centres unmarked) [Example 26]
27 | 25% | 0.62 µM | Cc1c(NCC2Cc3ccccc3O2)ncnc1C(=O)N1CCC(N2CCC(O)CC2)CC1 (centres unmarked) [Example 27]
28 | 58% | 4.18 µM | Cc1c(NC2CCCCC2)ncnc1C(=O)N1CCC(N2CCC(O)CC2)CC1 [Example 28]
29 | 40% | 2.1 µM | Cc1c(NCc2ccc3occc3c2)ncnc1C(=O)N1CCC(N2CCC(O)CC2)CC1 [Example 29]
30 | 18% | 0.446 µM | Cc1ccc(CNc2ncnc(C(=O)N3CCC(N4CCC(O)CC4)CC3)c2C)cc1Cl [Example 30]
31 | 28% | 0.79 µM | Cc1ccc(CNc2ncnc(C(=O)N3CCC(N4CCC(O)CC4)CC3)c2C)cc1C [Example 31]
32 | 2% | 0.037 µM | CCS(=O)(=O)N(C)C1CCN(C2CCN(C(=O)c3ncnc(NCc4ccc(C)c(Cl)c4)c3C)CC2)CC1 [Example 32]
33 | 0% | 0.022 µM | CCS(=O)(=O)N(C)C1CCN(C2CCN(C(=O)c3ncnc(NCc4ccc(C(F)(F)F)c(Cl)c4)c3C)CC2)CC1 [Example 33]
34 | 4% | 0.062 µM | CCS(=O)(=O)N(C)C1CCN(C2CCN(C(=O)c3ncnc(NCc4ccc(C(C)C)cc4)c3C)CC2)CC1 [Example 34]
35 | 5% | 0.024 µM | CCS(=O)(=O)N(C)C1CCN(C2CCN(C(=O)c3ncnc(NCc4ccc(Cl)c(Cl)c4)c3C)CC2)CC1 [Example 35]
36 | 1% | 0.01 µM | CCS(=O)(=O)N(C)C1CCN(C2CCN(C(=O)c3ncnc(NCCc4ccc(Cl)c(Cl)c4)c3C)CC2)CC1 [Example 36]
37 | 4% | 0.011 µM | CCS(=O)(=O)N(C)C1CCN(C2CCN(C(=O)c3ncnc(NCc4ccc(C(C)(C)C)cc4)c3C)CC2)CC1 [Example 37]
38 | 13% | 0.069 µM | CCS(=O)(=O)N(C)C1CCN(C2CCN(C(=O)c3ncnc(NCC4CCCN(c5ccccc5)C4)c3C)CC2)CC1 (centres unmarked) [Example 38]
39 | 2% | 0.036 µM | CCS(=O)(=O)N(C)C1CCN(C2CCN(C(=O)c3ncnc(NCc4ccc(Cl)c(F)c4)c3C)CC2)CC1 [Example 39]
40 | 9% | 0.174 µM | CCS(=O)(=O)N(C)C1CCN(C2CCN(C(=O)c3ncnc(NCC4CCN(c5ccccc5)CC4)c3C)CC2)CC1 [Example 40]
41 | 6% | 0.011 µM | CCS(=O)(=O)N(C)C1CCN(C2CCN(C(=O)c3ncnc(NC[C@H]4CCN(c5ccccc5)C4)c3C)CC2)CC1 [Example 41]
42 | 16% | 0.433 µM | Cc1c(NCC2CCCN(c3ccccc3)C2)ncnc1C(=O)N1CCC(N2CCOCC2)CC1 (centres unmarked) [Example 42]
43 | 17% | 0.566 µM | Cc1ccc(CNc2ncnc(C(=O)N3CCC(N4CCOCC4)CC3)c2C)cc1Cl [Example 43]
44 | 27% | 1.64 µM | Cc1ccc(CNc2ncnc(C(=O)N3CCC(N4CCOCC4)CC3)c2C)cc1F [Example 44]
45 | 17% | 0.501 µM | Cc1c(NCc2ccc(Cl)c(F)c2)ncnc1C(=O)N1CCC(N2CCOCC2)CC1 [Example 45]
46 | 12% | 0.225 µM | Cc1c(NCC2Cc3ccccc3C2)ncnc1C(=O)N1CCC(N2CCOCC2)CC1 [Example 46]
